Test results from PMC6121902, “Conjugation with Dihydrolipoic Acid Imparts Caffeic Acid Ester Potent Inhibitory Effect on Dopa Oxidase Activity of Human Tyrosinase” (International Journal of Molecular Sciences, 2018).
“Also recorded” adds a separate entry of the source.

Experiments:
mushroom tyrosinase [1] = assay: Mushroom tyrosinase DO activity inhibition (dopachrome formation at 475 nm, L-DOPA substrate); type: biochemical; settings: LCAME 0.050 μM
Experimental: (§1) The inhibition properties of LCAME were preliminarily investigated on mushroom tyrosinase by spectrophotometric monitoring of dopachrome formation, a method which is routinely used for evaluation of the activity of potential tyrosinase inhibitors. L-DOPA was used as the substrate to test DO activity while L-tyrosine was used to test TH activity. LCAME was incubated in 50 mM phosphate buffer in the presence of mushroom tyrosinase (20 U/mL) at room temperature. After 10 min, L-DOPA or L-tyrosine (1 mM final concentration) were added and the absorbance at 475 nm was measured at different times over 10 min. For comparative purposes the effects of CAME were evaluated as well. Stock methanolic solutions of LCAME or CAME, ranging in concentration from 0.02 to 20 mM concentration were prepared dissolving a proper amount of the compound of interest in methanol. 100 μL of these solutions were added to 2 mL of 50 mM phosphate buffer at pH 6.8 (final concentrations range: 0.001–1 mM), in the presence or in the absence of 20 U/mL mushroom tyrosinase. After 10 min incubation at room temperature, 20 μL of a 100 mM solution of L-DOPA or L-tyrosine in 0.6 M HCl, were added (final concentration: 1 mM). Spectrophotometric analysis was performed by measuring the absorbance at 475 nm for 10 min at 2 min intervals. In control experiments, the reaction was run in the absence of LCAME. When required, the experiment was performed as above but adding L-DOP A soon after the addition of LCAME (0.050 μM). In separate experiments, the assay was run as above with LCAME or CAME at 100 μM, in the presence or absence of L-DOPA, and after 10 min the mixture was analyzed by HPLC.

human tyrosinase = test system: T1, human tyrosinase; assay: TH activity of human tyrosinase; type: biochemical; settings: compared with DO activity
T1 construct: endogenous in cells

tyrosinase = assay: Tyrosinase expression by Western blot (αPEP7), with or without NDP-MSH; type: cell-based, human
Experimental: Control HBL cells or cells grown in the presence of CAME (25 µM) or LCAME (25 or 50 µM) were stimulated for 48 h with a potent analogue of αMSH ([Nle^4,D-Phe^7]-α-MSH (NDP-MSH), 10^−7 M). Use of the 50 μM concentration of CAME was avoided since this concentration was somewhat cytotoxic as shown above. Expression of tyrosinase was then evaluated by Western blot using a specific antibody directed against tyrosinase (αPEP7). […] However, other mechanisms such as interference with activation and/or functional coupling of the melanocortin 1 receptor responsible for αMSH actions cannot be ruled out and a complete study of these possibilities is beyond the scope of this work. Accordingly, interference of LCAME with MITF expression or activity remains speculative at this stage. In any case, this preliminary observation deserves confirmation using cultured normal human melanocytes and further mechanistic analysis, as it may further support the potential use of LCAME as a skin depigmenting agent. Indeed, LCAME may act at two different levels, on one hand by inhibiting preexisting tyrosinase by a competitive mechanism, and on the other hand by interfering with αMSH-dependent induction of tyrosinase expression.
Figure 5 Effect on tyrosinase expression of CAME (25 µM) and LCAME (25 and 50 µM). HBL melanoma cells were incubated with or without the indicated compounds and stimulated with NDP-MSH (10^−7 M). After 48 h of treatment, tyrosinase levels were compared by Western blotting, performed as described in Materials and Methods. […] For each experimental condition, the fold-increase of tyrosinase abundance upon NDP-MSH treatment relative to the corresponding control was determined by densitometric analysis (ImageJ software) and is shown below the figure.
After protein separation by SDS-PAGE, they were transferred from the gel to the membrane and immunochemical detection with anti-PEP7 was performed as previously described. Briefly, the filters were blocked for 1 h in 2% bovine serum albumin in 1% Tween 20 PBS and incubated overnight at 4 °C with primary antibodies (1:4000 dilution). The filters were washed and further incubated with peroxidase-labeled mouse anti-rabbit IgG (1:5000 dilution). Staining and detection were done with ECL Plus Western Blotting Detection System chemiluminescent substrate (Thermo Fisher Scientific, Waltham, MA, USA). Images were acquired in a Fusion Solo.6S system (Vilber-Lourmat, Marne La Vallée, France). Signal intensities were estimated with ImageJ (National Institutes of Health, Bethesda, […], USA) in independent blots, and normalized with the corresponding loading controls (obtained by staining the membranes with an anti-ERK2 antibody).

mushroom tyrosinase [2] = assay: Consumption of inhibitor by mushroom tyrosinase (substrate test, HPLC); type: biochemical; settings: 100 μM, 10 min
Experimental: Some tyrosinase inhibitors are also substrates of the enzyme and this is a critical issue because their oxidation can lead to the formation of highly reactive, cytotoxic o-quinones. To rule out this possibility, either LCAME or CAME at 100 μM were exposed to mushroom tyrosinase, in the absence of L-DOPA, and after 10 min, the reaction mixtures were analyzed by HPLC. […] HPLC analyses for determination of the consumption of CAME and LCAME in the presence of mushroom tyrosinase were performed on a Agilent 1100 binary pump instrument equipped with a UV-visible detector using an octadecylsilane-coated column, 250 mm × 4.6 mm, 5 μm particle size (Phenomenex Sphereclone ODS, Bologna, Italy) at 0.7 mL/min, using the following gradient: 0.1% formic acid (eluant a)/ methanol (eluant b): 40% b, 0–10 min; from 40 to 80% b, 47.5–52.5 min; from 80 to 40% b, 52.5–57.5 min. Detection wavelength was set at 280 nm. Stock methanolic solutions of LCAME or CAME, ranging in concentration from 0.02 to 20 mM concentration were prepared dissolving a proper amount of the compound of interest in methanol. 100 μL of these solutions were added to 2 mL of 50 mM phosphate buffer at pH 6.8 (final concentrations range: 0.001–1 mM), in the presence or in the absence of 20 U/mL mushroom tyrosinase. After 10 min incubation at room temperature, 20 μL of a 100 mM solution of L-DOPA or L-tyrosine in 0.6 M HCl, were added (final concentration: 1 mM). Spectrophotometric analysis was performed by measuring the absorbance at 475 nm for 10 min at 2 min intervals. In control experiments, the reaction was run in the absence of LCAME. When required, the experiment was performed as above but adding L-DOP A soon after the addition of LCAME ([…]). In separate experiments, the assay was run as above with LCAME or CAME at 100 μM, in the presence or absence of L-DOPA, and after 10 min the mixture was analyzed by HPLC.

mushroom tyrosinase [3] = assay: Mushroom tyrosinase TH activity inhibition (dopachrome formation at 475 nm, L-tyrosine substrate); type: biochemical; settings: 10 min pre-incubation, L-tyrosine 1 mM, tyrosinase 20 U/mL, pH 6.8
Experimental: as §1, with “After 10 min incubation at room temperature, 20 μL of a 100 mM solution of L-DOPA or L-tyrosine in 0.6 M HCl, were added (final concentration: 1 mM).” left out, “In control experiments, the reaction was run in the absence of LCAME. When required, the experiment was performed as above but adding L-DOP A soon after the addition of LCAME (0.050 μM).” left out

inhibition of DO activity (mushroom tyrosinase [1]; 10 min pre-incubation): 50 ± 2%
inhibition of DO activity (mushroom tyrosinase [1]; L-DOPA added immediately after LCAME (no pre-incubation)): 42 ± 1%
effect on TH activity of human tyrosinase (human tyrosinase): weaker; also recorded: much smaller
consumption of the inhibitor (mushroom tyrosinase [2]; absence of L-DOPA): no significant consumption
consumption of the inhibitor (mushroom tyrosinase [2]; presence of L-DOPA): The same result
IC50 (mushroom tyrosinase [3]): 830 ± 90 nM
Structure (SMILES): COC(=O)/C=C/c1ccc(O)c(O)c1SCCC(S)CCCCC(=O)O (centres unmarked) [LCAME, 2-S-lipoylcaffeic acid methyl ester]
NDP-MSH-mediated stimulation of tyrosinase expression (tyrosinase; 25 or 50 µM, NDP-MSH 10^−7 M, 48 h): apparently blocked
basal tyrosinase expression (tyrosinase; HBL cells, CAME 25 µM or LCAME 25 or 50 µM, Western blot): No alteration; also recorded: No significant changes
